Measured values taken from patent US11466054B2, “Inhibitors of metastasis” (BIOMARCK PHARMACEUTICALS LTD., priority 2013, dated 2022).
Where no end group is shown, it is not given here.

Tests used:
PC-9 cells = assay: Orthotopic lung injection xenograph model, PC-9 cells in nude mice; assay type: in vivo; conditions: 50 nmoles i.p. once every three days, 25 days
Method: The metastatic activity of cancer cells in vivo after treatment with MANS peptide or BIO-11006 was assessed in the orthotopic lung injection xenograph model. After pretreatment with either PBS, or PBS+MANS, BIO-11006 (SEQ ID NO: 106), or the control RNS peptide at 100 μM for 4 hours, PC-9 cells were injected into the left lobe of the lung of nude mice. Seven days later, these mice were given systemic treatment with either PBS only (Con), RNS (additional control peptide), MANS or BIO-11006 at 50 nmoles per intraperitoneal injection once every three days. At 25 days (6 injections) post-seeding of these tumor cells, mice were sacrificed and the number of metastasized tumor nodules in the contralateral lung and other organs was counted.

[1] = test system: Human adenocarcinoma cells (PC-9); assay: Orthotopic lung cancer implantation model in SCID mice, i.p. versus inhalation (Example 4); assay type: in vivo
Method: In this study, inhibition of lung cancer metastasis by peptide BIO-11006 in an orthotopic lung cancer implantation model in SCID mice assessed. Human adenocarcinoma cells (PC-9) (1-2×10^5) were suspended in 40 μL of PBS, pH 7.4 containing 0.5 mg/mL of Matrigel™ (BD Bioscience) and injected into the left lung of SCID mice (n=3) using a syringe with 29 gauge needle. BIO-11006 (100 μM, in PBS) was administered either (a) by i.p. injection (50 μL) once daily for 22 days starting at 3 days post cancer cell inoculation or (b) by aerosol inhalation using a Nebulizer Delivery System (Aeroneb Lab) over 30 min once daily for 22 days starting at 3 days post cancer cell inoculation. […] Both i.p. and aerosol administration of BIO-11006 reduced cancer cell metastasis by more than 50% in the right lung and heart, and 100% in the diaphragm. Thus, both routes of administration had significant inhibitory effects on cancer cell metastasis.

CL1-5 cells = assay: Transwell migration assay, CL1-5 cells pretreated with peptide; assay type: cell-based, human; conditions: 12 hours; for cell number: control approximately 105; for migration index: control=1.0;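 for migration index: index equals control cell count divided by treated cell count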
Method: CL1-5 cells, an aggressively metastatic cell line derived from a human adenocarcinoma, were cultured in RPMI 1640 media with 10% FBS, 37° C. at 95% […]/5% CO2 until ready for use. Transwell plates (24-well, 8-um pore size; Costar, Cambridge, Mass., USA) were used to conduct the migration assay. The lower chambers of the Transwell plates were filled with 600 μl of basal media containing 10% FBS. The cells (1×10^5) were pretreated with 50 or 100 μM of the indicated test peptide for 30 min, and then suspended in 100 μl of basal media containing 1% BSA and added to the upper chamber, and the cells then were incubated at 37° C. for 12 hr. The cells on the upper surface of the filters were removed using cotton swabs, and the cells that migrated to the lower surface of the filters were washed, fixed, and stained with hematoxylin and counted under the microscope. The percent change in migration was determined by counting the number of cells that migrated to the lower surface of the filters. At least 3 separate microscopic fields were counted per membrane (n=4).
Primary CL1-5 cells originated from human adenocarcinoma lung cancer Transwell plates with 24-wells, 8-μ pore size (Costar, Cambridge, Mass., USA) were used to conduct the migration assay. The lower chambers of the transwell plates were filled with 600 μL of basal media containing 10% FBS. The cells (1-2×10^5) were suspended in 100 μL of basal media containing 1% BSA. The test peptide at desired concentration was added to the upper chamber directly or after preincubation with cancer cells. The plates were then incubated at 37° C. for 12 hours. The cells on the upper surface of the filters were removed using cotton swabs. The cells that migrated to the lower surface of the filters were washed, fixed, and stained with hematoxylin and counted under the microscope. At least five separate microscopic fields are counted per membrane (n=3). The percent change in migration was determined by counting the number of cells that migrated to the lower surface of the filters.
The count means the actual number of cells which migrated to the lower chamber and counted by a light microscope at 40× magnification, presented as the mean number of cells in 10 randomly chosen fields for each treatment.
The “index” was calculated by dividing the number of cells that migrated in the presence of peptides by the number of cells that migrated randomly (control group). […]. This calculation can reflect the extent that the migration of cells was blocked by 30 minute pretreatment with MANS-related peptides.

A549 cells = assay: Anti-metastatic efficacy in SCID mice given A549 cells via the tail vein; assay type: in vivo; conditions: Day 53; for No. of metastatic nodules in lungs Mean ± SEM: aerosol 100 μM every other day for 7 weeks
Method: Female NOD.CB17-Prkdc^scid/NCrHsd, Mus musculus mice (Harlan, The Netherlands), housed in individually ventilated cages, were randomized into six groups of eight mice each. A549 cells (2.5×10^6) were injected into the mice via the tail vein. The control group received aerosolized vehicle PBS; while the groups 2 and 3 received the aerosolized test compound BIO-11006 either from −1 day before the cancer cells injection (group 2) or from +3 days after the cancer cell injection (group 3) on every other day for 7 weeks via nebulizer (Aeroneb Lab). Groups 4 and 5 received the aerosolized test compound MANS peptide either from −1 day before the cancer cell line injection (group 4) or from +3 days after the cell line injection (group 5) on every other day for 7 weeks via a nebulizer (Aeroneb Lab). For aerosol delivery, solution of each test compound (100 μM) was prepared in PBS, pH 7.0. For each treatment, 5 mL of test compound solution was aerosolized over 30 minutes into a chamber containing four mice at a time. The mice were monitored for body weight every other day for 7 weeks.
One group of mice (n=7) served as normal control. These were untreated naïve mice used to monitor the health status of mice during the study period. All animals from all groups were sacrificed on Day 53. FIG. 15 compares number of metastatic nodules in lungs after respective administration of BIO-11006 and MANS peptide on Day 53 following A549 cell injection. […] There were few focal tumor nodules in ⅞ of mice treated with BIO-11006 peptide starting at either Day −1 or Day +3 relative to A549 cell injection.

[2] = aerosol inhalation 100 μM over 30 min once daily for 22 days from 3 days post inoculation
[3] = i.p. injection 50 μL of 100 μM once daily for 22 days from 3 days post inoculation
[4] = CL1-5, 50 μmolar pretreatment, FIG. 9
[5] = CL1-5, 100 μmolar pretreatment, FIG. 10

“N-acetyl-GAQFSKTAAK (Ac-GAQFSKTAAK; listed as Homo sapiens) [BIO-11006]” was tested, and the “Metastases (affected mice/total mice) Diaphragm” value (PC-9 cells) was 0/2, the “Metastases (affected mice/total mice) Heart” value (PC-9 cells) was 0/2 and the “Metastases (affected mice/total mice) Intestines” value (PC-9 cells) was 0/2. The “Metastases (affected mice/total mice) Spleen” value (PC-9 cells) was 0/2, the “No. of Metastatic Lung Tumors Mean ± SE (L't)” value (PC-9 cells; left lung) was 0; 0 and the “No. of Metastatic Lung Tumors Mean ± SE (R't)” value (PC-9 cells; right lung) was 0; 0. The “Tumor Size (mm) Mean ± SE” value (PC-9 cells; tumor at site of injection, cells pretreated 100 μM 4 hours) was 1.61 ± 0.37 mm, the “reduction of cancer cell metastasis in the diaphragm” value [1, 2] was 100% and the “reduction of cancer cell metastasis in the right lung and heart” value [1, 2] was “more than 50%”. The “reduction of cancer cell metastasis in the diaphragm” value [1, 3] was 100%, the “reduction of cancer cell metastasis in the right lung and heart” value [1, 3] was “more than 50%” and the cell number (CL1-5 cells; [4]) was “approximately 50”. The migration index (CL1-5 cells; [4]) was “approximately 2”, the cell number (CL1-5 cells; [5]) was “approximately 50” and the migration index (CL1-5 cells; [5]) was “approximately 2.1”. For the same substance, the “animals with few focal tumor nodules” value (A549 cells; +3 Day treatment group) was “Few focal tumor nodules in 7/8”, the distant metastasis (A549 cells; +3 Day treatment group) was “No distant metastasis” and the “No. of metastatic nodules in lungs Mean ± SEM” value (A549 cells; +3 Day treatment group) was 21 ± 6. The “animals with few focal tumor nodules” value (A549 cells; −1 Day treatment group) was “Few focal tumor nodules in 7/8”, the distant metastasis (A549 cells; −1 Day treatment group) was “No distant metastasis” and the “No. of metastatic nodules in lungs Mean ± SEM” value (A549 cells; −1 Day treatment group) was 34 ± 14.
